Results as given in patent US9527850B2, “Benzyl piperidine compounds as lysophosphatidic acid (LPA) receptor antagonist” (Merck Patent GmbH, priority 2011, dated 2016).
pIC50: −log10 of the molar value.

Biological target: T1, LPA2 receptor (LPA2R) (Homo sapiens, UniProt Q9HBW0)
T1 construct: expressed in transfected cells; host or cells: U2OS
Assay: LPA2R-Calciumflux assay (intracellular calcium mobilisation, FLIPR)
Format: cell-based
Conditions: U2OS cells recombinant expressing LPA2R; inhibition of LPA-induced Ca-flux; 10 concentrations 30 uM to 1 nM, 1% DMSO
Excerpt: The assay detects intra cellular calcium which is generated by cells upon activation of the LPA2 receptor by its ligand LPA. This transient calcium mobilization can be monitored using a commercial calcium detection kit (e.g. from Molecular Devices). The main component of such a kit is a dye, which becomes fluorescent when calcium is present—a transient fluorescence signal after laddition of a ligand to a test well are the result. Readers like the FLIPR (Molecular Devices) can be used to monitor such transient “Ca-flux” signals.
The signals are calculated according to peak maximum minus base line.
The assay is performed in microplates (384 wells per plate).
LPA2R-Calciumflux Assay Protocol
The assay is run according to the following procedure: • 50 uL seed cells (10000 cells/well in DMEM buffer) • Incubate 24 h at 37° C., 10% CO2 • aspirate medium • 50 uL add calcium dye 1×HBSS/HEPES buffer • incubate 1 h at 37° C. (“loading”) • equilibrate 10 min at RT • 5 uL add compounds in HEPES buffer • shake 10 sec. at 1000 rpm • incubate 15 min at RT • 20 uL add LPA (in the FLIPR Tetra) in Krebs-buffer/BSA & measurement
The cells are seeded in DMEM buffer (DMEM, 10% FCS, 10 mM HEPES, 1% Pen/Strep).
Dye loading is done in HBSS/HEPES buffer (100 mL 10×HBSS+20 mL 1M HEPES+880 mL water, pH 7.4)
The LPA is added in Krebs/BSA buffer (120 mM NaCl, 5 mM KCl, 0.62 mM MgSO4, 1.8 mM CaCl2, 10 mM HEPES, 6 mM D(+)-Glucose, 0.2% BSA, pH 7.4).
The compounds are pre-diluted in HEPES buffer (20 mM, pH 7.4), whereby the final DMSO content in the assay is kept at 1%. The compounds are pre-diluted in order to generate dose response series on the microplates. The dose response series consist of 10 concentrations for each compound from 30 uM final to 1 nM final. From all compound wells the resulting signals are referred to control wells (located on each plate besides the compound wells) in terms of % activity.
From these % activity values—along with the corresponding compound concentrations—IC50 values are fitted for each compound using standard fitting programs such as Graphpad Prism. Here the method “log(inhibitor) vs. response—Variable slope” is used.

T1 sequence (Q9HBW0 whole entry): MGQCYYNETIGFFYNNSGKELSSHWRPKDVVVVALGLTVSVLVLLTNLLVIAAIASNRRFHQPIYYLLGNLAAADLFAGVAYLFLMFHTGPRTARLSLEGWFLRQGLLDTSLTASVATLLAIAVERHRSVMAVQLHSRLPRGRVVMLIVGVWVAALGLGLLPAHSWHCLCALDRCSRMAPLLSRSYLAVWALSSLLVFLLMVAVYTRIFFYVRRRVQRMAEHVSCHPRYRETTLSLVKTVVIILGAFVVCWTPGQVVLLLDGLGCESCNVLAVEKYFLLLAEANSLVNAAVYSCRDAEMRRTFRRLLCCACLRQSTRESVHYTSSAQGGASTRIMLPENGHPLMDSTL

Compound	pIC50
Cc1ccc(CN2CCCCC2c2nc3ccc(Br)cc3[nH]2)cc1C (centres unmarked) [compound 96, 6-Bromo-2-[1-(3,4-dimethyl-benzyl)-piperidin-2-yl]-1H-benzo-imidazole]	> 6.30
Cc1cc(Cl)cc2nc(C3CCCCN3Cc3ccc4c(c3)C(C)(C)CCC4(C)C)[nH]c12 (centres unmarked) [compound 97, 5-Chloro-7-methyl-2-[1-(5,5,8,8-tetramethyl-5,6,7,8-tetrahydro-naphthalen-2-ylmethyl)-piperidin-2-yl]-1H-benzo-imidazole]	5.30 to 6.30
Cc1cc(Cl)cc2nc(C3CCCCN3Cc3cccc(C(F)(F)F)c3)[nH]c12 (centres unmarked) [compound 98]	5.30 to 6.30
Cc1cccc(CN2CCCCC2c2nc3cc(Cl)cc(C)c3[nH]2)c1 (centres unmarked) [compound 99, 5-Chloro-7-methyl-2-[1-(3-methyl-benzyl)-piperidin-2-yl]-1H-benzo-imidazole]	5.30 to 6.30
Cc1ccc(CN2CCCCC2c2nc3cccc(C)c3[nH]2)cc1C (centres unmarked) [compound 100, 2-[1-(3,4-Dimethyl-benzyl)-piperidin-2-yl]-7-methyl-1H-benzo-imidazole]	> 6.30
CC(c1ccccc1)N1CCCCC1c1nc2cc(F)ccc2[nH]1 (centres unmarked) [compound 101, 5-Fluoro-2-[1-(1-phenyl-ethyl)-piperidin-2-yl]-1H-benzo-imidazole]	5.30 to 6.30
Fc1ccc2[nH]c(C3CCCCN3Cc3ccccc3)nc2c1 (centres unmarked) [compound 102, 2-(1-Benzyl-piperidin-2-yl)-5-fluoro-1H-benzo-imidazole]	5.30 to 6.30
Cc1ccc(CN2CCCCC2c2nc3cc(F)ccc3n2C)cc1C (centres unmarked) [compound 103, 2-[1-(3,4-Dimethyl-benzyl)-piperidin-2-yl]-5-fluoro-1-methyl-1H-benzo-imidazole]	5.30 to 6.30
Fc1ccc2[nH]c(C3CCCCN3CCc3ccccc3)nc2c1 (centres unmarked) [compound 104, 5-Fluoro-2-(1-phenethyl-piperidin-2-yl)-1H-benzo-imidazole]	5.30 to 6.30
Cc1ccc(CN2CCCCC2c2nc3cc(Cl)cc(C)c3[nH]2)cc1C (centres unmarked) [compound 105]	5.30 to 6.30
Cc1cccc(CN2CCCCC2c2nc3cc(C)c(Cl)cc3[nH]2)c1 (centres unmarked) [compound 106, 6-Chloro-5-methyl-2-[1-(3-methyl-benzyl)-piperidin-2-yl]-1H-benzo-imidazole]	> 6.30
COc1ccc(CN2CCCCC2c2cc3cc(F)ccc3[nH]2)cc1 (centres unmarked) [compound 107, 5-Fluoro-2-[1-(4-methoxy-benzyl)-piperidin-2-yl]-1H-indole]	> 6.30
Cc1ccc(CN2CCCCC2c2cc3cc(F)ccc3[nH]2)cc1 (centres unmarked) [compound 108, 5-Fluoro2-[1-(4-methyl-benzyl)-piperidin-2-yl]-1H-indole]	> 6.30
COc1cccc(CN2CCCCC2c2cc3cc(F)ccc3[nH]2)c1 (centres unmarked) [compound 109, 5-Fluoro-2-[1-(3-methoxy-benzyl)-piperidin-2-yl]-1H-indole]	> 6.30
Cn1nc(CN2CCCCC2c2cc3cc(F)ccc3[nH]2)c2ccccc21 (centres unmarked) [compound 110, 3-[2-(5-Fluoro-1H-indol-2-yl)-piperidin-1-ylmethyl]-1-methyl-1H-indazole]	> 6.30
Fc1ccc(CCN2CCCCC2c2cc3cc(F)ccc3[nH]2)cc1 (centres unmarked) [compound 111, 5-Fluoro-2-{1-[2-(4-fluoro-phenyl)-ethyl]-piperidin-2-yl}-1H-indole]	5.30 to 6.30
Fc1ccc(CN2CCCCC2c2cc3cc(F)ccc3[nH]2)c(F)c1 (centres unmarked) [compound 112, 2-[1-(2,4-Difluoro-benzyl)-piperidin-2-yl]-5-fluoro-1H-indole]	> 6.30
Cc1cc2nc(C3CCCCN3Cc3ccc4c(c3)C(C)(C)CCC4(C)C)[nH]c2cc1Cl (centres unmarked) [compound 113, 6-Chloro-5-methyl-2-[1-(5,5,8,8-tetramethyl-5,6,7,8-tetrahydro-naphthalen-2-ylmethyl)-piperidin-2-yl]-1H-benzo-imidazole]	5.30 to 6.30
Cc1ccc(CN2CCCCC2c2nc3cc(C)c(Cl)cc3[nH]2)cc1C (centres unmarked) [compound 114, 6-Chloro-2-[1-(3,4-dimethyl-benzyl)-piperidin-2-yl]-5-methyl-1H-benzo-imidazole]	> 6.30
NS(=O)(=O)c1ccc2nc(C3CCCCN3Cc3cccc(C(F)(F)F)c3)[nH]c2c1 (centres unmarked) [compound 115]	5.30 to 6.30
Cc1ccc(CN2CCCCC2c2nc3ccc(S(N)(=O)=O)cc3[nH]2)cc1C (centres unmarked) [compound 116, 2-[1-(3,4-Dimethyl-benzyl)-piperidin-2-yl]-3H-benzo-imidazole-5-sulfonic acid amide]	> 6.30

Compound	pIC50
Cc1ccc(CN2CCCCC2c2nc3ccc(S(N)(=O)=O)cc3[nH]2)cc1C(F)(F)F (centres unmarked) [compound 117]	5.30 to 6.30
CC1(C)CCC(C)(C)c2cc(CN3CCCCC3c3nc4ccc(S(N)(=O)=O)cc4[nH]3)ccc21 (centres unmarked) [compound 118, 2-[1-(5,5,8,8-Tetramethyl-5,6,7,8-tetrahydro-naphthalen-2-ylmethyl)-piperidin-2-yl]-3H-benzo-imidazole-5-sulfonic acid amide]	5.30 to 6.30
Cc1ccc(CN2CCCC[C@@H]2c2nc3cc(F)ccc3[nH]2)cc1C [compound 119, 2-[(R)-1-(3,4-Dimethyl-benzyl)-piperidin-2-yl]-5-fluoro-1H-benzo-imidazole]	> 6.30
Fc1ccc(CN2CCCCC2c2nc3cc(Cl)cnc3[nH]2)cc1 (centres unmarked) [compound 120, 6-Chloro-2-[1-(4-fluoro-benzyl)-piperidin-2-yl]-3H-imidazo[4,5-b]pyridine]	> 6.30
CCc1nc(CN2CCCCC2c2nc3cc(F)ccc3[nH]2)cs1 (centres unmarked) [compound 121, 2-[1-(2-Ethyl-thiazol-4-ylmethyl)-piperidin-2-yl]-5-fluoro-1H-benzo-imidazole]	> 6.30
Fc1ccc2[nH]c(C3CCCCN3Cc3csc(Cl)n3)nc2c1 (centres unmarked) [compound 122, 2-[1-(2-Chloro-thiazol-4-ylmethyl)-piperidin-2-yl]-5-fluoro-1H-benzo-imidazole]	5.30 to 6.30
Cc1nc(CN2CCCCC2c2nc3cc(F)ccc3[nH]2)cs1 (centres unmarked) [compound 123]	5.30 to 6.30
Fc1ccc(CN2CCCC[C@H]2c2cc3ccccc3[nH]2)cc1 [compound 124, 2-[(S)-1-(4-Fluoro-benzyl)-piperidin-2-yl]-1H-indole]	5.30 to 6.30
Fc1ccc(CN2CCCC[C@@H]2c2cc3ccccc3[nH]2)cc1 [compound 125, 2-[(R)-1-(4-Fluoro-benzyl)-piperidin-2-yl]-1H-indole]	> 6.30
Cc1cc2nc(C3CCCCN3Cc3cccc(C(F)(F)F)c3)[nH]c2cc1Cl (centres unmarked) [compound 126]	> 6.30
Cc1cc2nc(C3CCCCN3Cc3ccc(C)c(C(F)(F)F)c3)[nH]c2cc1Cl (centres unmarked) [compound 127]	5.30 to 6.30
Cc1ccc(CN2CCCCC2c2nc3cc(Cl)cnc3[nH]2)cc1C (centres unmarked) [compound 128, 6-Chloro-2-[1-(3,4-dimethyl-benzyl)-piperidin-2-yl]-3H-imidazo[4,5-b]pyridine]	> 6.30
Cc1cccc(CN2CCCCC2c2nc3ccc(S(N)(=O)=O)cc3[nH]2)c1 (centres unmarked) [compound 129, 2-[1-(3-Methyl-benzyl)-piperidin-2-yl]-3H-benzo-imidazole-5-sulfonic acid amide]	> 6.30
Fc1ccc(CN2CCCCC2c2nc3cccnc3[nH]2)cc1 (centres unmarked) [compound 130, 2-[1-(4-Fluoro-benzyl)-piperidin-2-yl]-3H-imidazo[4,5-b]pyridine]	> 6.30
Fc1ccc(CN2CCCC[C@H]2c2nc3cc(F)ccc3[nH]2)cc1 [compound 131, 5-Fluoro-2-[(S)-1-(4-fluoro-benzyl)-piperidin-2-yl]-1H-benzo-imidazole]	5.30 to 6.30
Fc1ccc(CCCN2CCCCC2c2cc3cc(F)ccc3[nH]2)cc1 (centres unmarked) [compound 132, 5-Fluoro-2-{1-[3-(4-fluoro-phenyl)-propyl)-piperidin-2-yl}-1H-indole]	4.82 to 5.30
Fc1ccc(CN2CCCCC2c2nc3nccnc3[nH]2)cc1 (centres unmarked) [compound 133, 2-[1-(4-Fluoro-benzyl)-piperidin-2-yl]-1H-imidazo[4,5-b]pyrazine]	4.82 to 5.30
Cc1ccc(CN2CCCCC2c2nc3nccnc3[nH]2)cc1C (centres unmarked) [compound 134, 2-[1-(3,4-Dimethyl-benzyl)-piperidin-2-yl]-1H-imidazo[4,5-b]pyrazine]	> 6.30
Cc1ccc(CN2CCC3C[C@]32c2nc3cc(F)ccc3[nH]2)cc1C (stereo partly drawn) [compound 135, 2-[(R)-2-(3,4-Dimethyl-benzyl)-2-aza-bicyclo-[3.1.0]hex-1-yl]-5-fluoro-1H-benzo-imidazole]	4.82 to 5.30
Fc1ccc(CN2CCCC[C@@H]2c2cc3cc(F)ccc3[nH]2)cc1 [compound 136, 5-Fluoro-2-[(R)-1-(4-fluoro-benzyl)-piperidin-2-yl]-1H-indole]	> 6.30
